From patent US11155586B2, “Cystine knot scaffold platform” (Genentech, Inc., priority 2015, dated 2021) come the findings set out here.

Positions of bridges follow the written chain, without caps; N, C: chain ends. Non-standard residues stand in square brackets, D forms with d. Residues, ends and D or L forms follow the SMILES beside them. 2Nal = N[C@@H](Cc1ccc2ccccc2c1)C(=O)O

In the test the target is T1, hVEGF-A (Homo sapiens, UniProt P15692).
T1 sequence (P15692 207-395): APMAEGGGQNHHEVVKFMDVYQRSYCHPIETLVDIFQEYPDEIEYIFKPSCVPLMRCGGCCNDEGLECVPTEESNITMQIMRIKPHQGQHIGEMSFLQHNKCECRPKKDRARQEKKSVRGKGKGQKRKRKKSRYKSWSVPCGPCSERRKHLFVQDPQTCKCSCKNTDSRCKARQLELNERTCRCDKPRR
The experiment in a line: KDR-CHO VEGF assay to determine cellular IC50 (VEGF mediated Tyr phosphorylation of KDR). Type of test: cell-based. As for the experimental part: KDR-CHO cells (CHO cells stably transfected with gD tagged-KDR) were grown in cell growth medium (DMEM/Ham's F-12, 10% diafiltered FBS (GIBCO catalog no. 26400), 25 mM HEPES, 2 mM L-GLUTAMAX™). For VEGF stimulation assay, 5×10^4 cells/well were plated in 100 μl of cell plating medium (DMEM/Ham's F-12, 0.2% BSA, 0.25% diafiltered FBS, 25 mM HEPES, 2 mM L-GLUTAMAX™) in 96-well tissue culture plate and incubated at 37° C. overnight. The medium was replaced with 100 I1 of serum-free cell stimulation medium (DMEM/Ham's F-12, 0.5% BSA, 25 mM HEPES) and cells were incubated at 37° C. for 2 hr. One hour before stimulation, the medium was replaced with 50 I1 of serum-free cell stimulation medium. Concurrently, VEGF (50 ng/ml for hVEGF, 100 ng/ml for mVEGF and rVEGF) was pre-incubated with titrated amount of CKP or anti-VEGF in 50 μl of serum-free cell stimulation medium at 37° C. for 1 hour and added to the cells. The cells were stimulated for 15 min at 37 C and the medium is removed. The cells were lysed with 130 I1 of ice-cold cell lysis buffer (150 mM NaCl, 50 mM HEPES, 0.5% Triton-X 100, HALT protease and phosphatase inhibitor cocktail (ThermoFisher Scientific, Inc. catalog no. 78444), 5 mM EDTA). VEGF mediated Tyr phosphorylation of KDR was determined by ELISA-based assay. Briefly, MAXISORP™ 96 well plates (ThermoFisher Scientific, Inc. catalog no. 439454) were coated with 100 I1 of anti-gD antibody diluted in PBS (1 μg/ml) at 4° C. overnight and washed three times with washing buffer (PBS, 0.05% TWEEN®20, pH 7.4). The plates were blocked with 300 I1 of blocking buffer (PBS, 0.5% BSA) at room temperature for 1 hour followed by washing three times with washing buffer. The above KDR-CHO cell lysate (100 μl) was added to each well and incubated at room temperature for 2 hours. The plates were washed four times with washing buffer followed by incubation with 100 I1 of 0.5 μg/ml biotin-conjugated anti-phosphotyrosine (clone 4G10, Millipore catalog no. 16-103) in blocking buffer at room temperature for 2 hours. After washing four times, the plates were incubated with 100 I1 of HRP-conjugated streptavidin in blocking buffer at room temperature for 30 min. After washing four times, the plates were developed with 100 I1 of TMB substrate (BD Biosciences) at room temperature for 20-30 min and stopped by addition of 50 μl of H2SO4 solution. The optical density of each well was determined using a microplate reader set to 450 nm.

As for “CNIMLPYWGCGRDFECLAGCVCQYYQSC [VEGF_CKP9.54.90 F7Y A2G]”, under “Table 38”, the “cellular potency relative to VEGF_CKP9.54.90” value is reported as “slight reduction of cellular potency”. As to `CC[C@H](C)[C@@H]1NC(=O)[C@H](CC(N)=O)NC(=O)[C@@H](NC(=O)CN)CSSC[C@@H](C(=O)N[C@H](C(=O)N[C@H]2CSSC[C@@H](C(=O)NCC(=O)O)NC(=O)[C@H](CO)NC(=O)[C@H](CCC(N)=O)NC(=O)[C@H](Cc3ccc(O)cc3)NC(=O)[C@H](Cc3ccc(O)cc3)NC(=O)[C@H](CCC(N)=O)NC2=O)C(C)C)NC(=O)CNC(=O)[C@H](C)NC(=O)[C@H](CC(C)C)NC(=O)[C@@H]2CSSC[C@H](NC(=O)CNC(=O)[C@H](Cc3ccc4ccccc4c3)NC(=O)[C@H](Cc3ccccc3)NC(=O)[C@@H]3CCCN3C(=O)[C@H](CC(C)C)NC(=O)[C@H](CCSC)NC1=O)C(=O)NCC(=O)N[C@@H](CCCNC(=N)N)C(=O)N[C@@H](CC(=O)O)C(=O)N[C@@H](Cc1ccccc1)C(=O)N[C@@H](CCC(=O)O)C(=O)N2` [9.54.90.Naph2] (H-GCNIMLPF[2Nal]GCGRDFECLAGCVCQYYQSCG-OH; disulfide 2-21, 11-17, 23-29; N-terminus and C-terminus assumed), the “FOLD IMPROVEMENT RELATIVE TO VARIANT 9.54.90” value (Table 38, from cellular IC50) was determined as 0.08. As for `CC[C@H](C)[C@H](NC(=O)[C@@H]1CSSC[C@H](NC(=O)CN)C(=O)N[C@@H](CC(N)=O)C(=O)N[C@@H]([C@@H](C)CC)C(=O)N[C@@H](CCSC)C(=O)N[C@@H](CC(C)C)C(=O)N2CCC[C@H]2C(=O)N[C@@H](Cc2ccccc2)C(=O)N[C@@H](Cc2c[nH]c3ccccc23)C(=O)NCC(=O)N[C@H]2CSSC[C@H](NC(=O)[C@H](CCC(=O)O)NC(=O)[C@H](Cc3ccccc3)NC(=O)[C@H](CC(=O)O)NC(=O)[C@H](CCCNC(=N)N)NC(=O)CNC2=O)C(=O)N[C@@H](CCSC)C(=O)N[C@@H](CCC(=O)O)C(=O)N[C@@H](CCC(N)=O)C(=O)N1)C(=O)N[C@H]1CSSC[C@@H](C(=O)NCC(=O)O)NC(=O)[C@H](CO)NC(=O)[C@H](CCC(N)=O)NC(=O)[C@H](Cc2ccc(O)cc2)NC(=O)[C@H](Cc2ccc(O)cc2)NC(=O)[C@H](CCC(N)=O)NC1=O` [9.54.90.67] (H-GCNIMLPFWGCGRDFECMEQCICQYYQSCG-OH; disulfide 2-21, 11-17, 23-29; N-terminus and C-terminus assumed), the “FOLD IMPROVEMENT RELATIVE TO VARIANT 9.54.90” value reads like this: (Table 36, from cellular IC50) 1.23; (Table 38, from cellular IC50) 1.23. `CC[C@H](C)[C@H](NC(=O)[C@@H]1CSSC[C@H](NC(=O)CN)C(=O)N[C@@H](CC(N)=O)C(=O)N[C@@H]([C@@H](C)CC)C(=O)N[C@@H](CCSC)C(=O)N[C@@H](CC(C)C)C(=O)N2CCC[C@H]2C(=O)N[C@@H](Cc2ccccc2)C(=O)N[C@@H](Cc2c[nH]c3ccccc23)C(=O)NCC(=O)N[C@H]2CSSC[C@H](NC(=O)[C@H](CCC(=O)O)NC(=O)[C@H](Cc3ccccc3)NC(=O)[C@H](CC(=O)O)NC(=O)[C@H](CCCNC(=N)N)NC(=O)CNC2=O)C(=O)N[C@@H](CCSC)C(=O)N[C@@H](CC(N)=O)C(=O)N[C@@H](CCC(N)=O)C(=O)N1)C(=O)N[C@H]1CSSC[C@@H](C(=O)NCC(=O)O)NC(=O)[C@H](CO)NC(=O)[C@H](CCC(N)=O)NC(=O)[C@H](Cc2ccc(O)cc2)NC(=O)[C@H](Cc2ccc(O)cc2)NC(=O)[C@H](CCC(N)=O)NC1=O` [9.54.90.13] (H-GCNIMLPFWGCGRDFECMNQCICQYYQSCG-OH; disulfide 2-21, 11-17, 23-29; N-terminus and C-terminus assumed): the “FOLD IMPROVEMENT RELATIVE TO VARIANT 9.54.90” value was 1.41 (Table 36, from cellular IC50) and 1.41 (Table 38, from cellular IC50). Regarding `CC[C@H](C)[C@H](NC(=O)[C@@H]1CSSC[C@H](NC(=O)CN)C(=O)N[C@@H](CC(N)=O)C(=O)N[C@@H]([C@@H](C)CC)C(=O)N[C@@H](CCSC)C(=O)N[C@@H](CC(C)C)C(=O)N2CCC[C@H]2C(=O)N[C@@H](Cc2ccccc2)C(=O)N[C@@H](Cc2c[nH]c3ccccc23)C(=O)NCC(=O)N[C@H]2CSSC[C@H](NC(=O)[C@H](CCC(=O)O)NC(=O)[C@H](Cc3ccccc3)NC(=O)[C@H](CC(=O)O)NC(=O)[C@H](CCCNC(=N)N)NC(=O)CNC2=O)C(=O)N[C@@H](Cc2ccccc2)C(=O)N[C@@H](Cc2ccc(O)cc2)C(=O)N[C@@H](CCC(=O)O)C(=O)N1)C(=O)N[C@H]1CSSC[C@@H](C(=O)NCC(=O)O)NC(=O)[C@H](CO)NC(=O)[C@H](CCC(N)=O)NC(=O)[C@H](Cc2ccc(O)cc2)NC(=O)[C@H](Cc2ccc(O)cc2)NC(=O)[C@H](CCC(N)=O)NC1=O` [9.54.90.62] (H-GCNIMLPFWGCGRDFECFYECICQYYQSCG-OH; disulfide 2-21, 11-17, 23-29; N-terminus and C-terminus assumed), the “FOLD IMPROVEMENT RELATIVE TO VARIANT 9.54.90” value (Table 36, from cellular IC50) was found to be 1.47 and the “FOLD IMPROVEMENT RELATIVE TO VARIANT 9.54.90” value (Table 38, from cellular IC50) was 1.47.

Consider `CC[C@H](C)[C@@H]1NC(=O)[C@H](CC(N)=O)NC(=O)[C@@H](N)CSSC[C@@H](C(=O)N[C@H](C(=O)N[C@H]2CSSC[C@@H](C(=O)O)NC(=O)[C@H](CO)NC(=O)[C@H](CCC(N)=O)NC(=O)[C@H](Cc3ccc(O)cc3)NC(=O)[C@H](Cc3ccc(O)cc3)NC(=O)[C@H](CCC(N)=O)NC2=O)C(C)C)NC(=O)CNC(=O)[C@H](C)NC(=O)[C@H](CC(C)C)NC(=O)[C@@H]2CSSC[C@H](NC(=O)CNC(=O)[C@H](Cc3c[nH]c4ccccc34)NC(=O)[C@H](Cc3ccc(O)cc3)NC(=O)[C@@H]3CCCN3C(=O)[C@H](CC(C)C)NC(=O)[C@H](CCSC)NC1=O)C(=O)NCC(=O)N[C@@H](CCCNC(=N)N)C(=O)N[C@@H](CC(=O)O)C(=O)N[C@@H](Cc1ccccc1)C(=O)N[C@@H](CCC(=O)O)C(=O)N2` [9.54.90.F7Y.Δ2G] (H-CNIMLPYWGCGRDFECLAGCVCQYYQSC-OH; disulfide 1-20, 10-16, 22-28; N-terminus and C-terminus assumed), for which the “FOLD IMPROVEMENT RELATIVE TO VARIANT 9.54.90” value (Table 38, from cellular IC50) is listed as 0.44. As for `CC[C@H](C)[C@H](NC(=O)[C@@H]1CSSC[C@H](NC(=O)CN)C(=O)N[C@@H](CC(N)=O)C(=O)N[C@@H]([C@@H](C)CC)C(=O)N[C@@H](CCSC)C(=O)N[C@@H](CC(C)C)C(=O)N2CCC[C@H]2C(=O)N[C@@H](Cc2ccc(O)cc2)C(=O)N[C@@H](Cc2c[nH]c3ccccc23)C(=O)NCC(=O)N[C@H]2CSSC[C@H](NC(=O)[C@H](CCC(=O)O)NC(=O)[C@H](Cc3ccccc3)NC(=O)[C@H](CC(=O)O)NC(=O)[C@H](CCCNC(=N)N)NC(=O)CNC2=O)C(=O)N[C@@H](Cc2ccccc2)C(=O)N[C@@H](Cc2ccc(O)cc2)C(=O)N[C@@H](CCC(=O)O)C(=O)N1)C(=O)N[C@H]1CSSC[C@@H](C(=O)NCC(=O)O)NC(=O)[C@H](CO)NC(=O)[C@H](CCC(N)=O)NC(=O)[C@H](Cc2ccc(O)cc2)NC(=O)[C@H](Cc2ccc(O)cc2)NC(=O)[C@H](CCC(N)=O)NC1=O` [9.54.90.62.F8Y] (H-GCNIMLPYWGCGRDFECFYECICQYYQSCG-OH; disulfide 2-21, 11-17, 23-29; N-terminus and C-terminus assumed), for the setting “Table 38, from cellular IC50”, the “FOLD IMPROVEMENT RELATIVE TO VARIANT 9.54.90” value was 1.18.
